Measurements published in ChEMBL document CHEMBL4420076, “Amylin and calcitonin receptor agonist” (2017).
Numbered stars: 1 amine (or outer) side, 2 acyl side, 3 side chain; on linkers, the order of the positions; unused ones are H or OH. Peptide text beside a SMILES is read from it. * marks the point of attachment. C20 diacid = O=C(O)CCCCCCCCCCCCCCCCCCC(=O)*; C18 diacid = O=C(O)CCCCCCCCCCCCCCCCC(=O)*; γGlu = O=C(O)[C@H](CCC(=O)[*:2])N[*:1]

Assays:
[1] = target: T1, Amylin receptor AMY3; CALCR/RAMP3 (Homo sapiens, UniProt O60896+P30988); assay: Agonist activity at human amylin receptor expressed in BHK570 cells co-expressing RAMP3 assessed as increase in intracellular cAMP concentration incubated for 3 hrs in absence of albumin by CRE luciferase reporter gene assay; assay type: functional, cell-based
T1 sequence (P30988 whole entry): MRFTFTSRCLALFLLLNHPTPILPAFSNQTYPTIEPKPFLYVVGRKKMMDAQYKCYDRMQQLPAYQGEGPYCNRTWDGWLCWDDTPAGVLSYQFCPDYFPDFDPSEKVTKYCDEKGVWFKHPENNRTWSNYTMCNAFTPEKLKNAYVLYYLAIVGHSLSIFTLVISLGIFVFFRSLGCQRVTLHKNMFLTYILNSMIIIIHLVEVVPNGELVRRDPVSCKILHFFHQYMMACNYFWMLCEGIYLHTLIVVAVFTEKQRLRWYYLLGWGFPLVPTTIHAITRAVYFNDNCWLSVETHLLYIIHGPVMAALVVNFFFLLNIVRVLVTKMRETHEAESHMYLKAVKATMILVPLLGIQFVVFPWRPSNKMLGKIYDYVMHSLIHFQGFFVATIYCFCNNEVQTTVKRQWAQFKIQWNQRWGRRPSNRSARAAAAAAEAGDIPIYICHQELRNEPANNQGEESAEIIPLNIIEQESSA
T1 sequence (O60896 whole entry): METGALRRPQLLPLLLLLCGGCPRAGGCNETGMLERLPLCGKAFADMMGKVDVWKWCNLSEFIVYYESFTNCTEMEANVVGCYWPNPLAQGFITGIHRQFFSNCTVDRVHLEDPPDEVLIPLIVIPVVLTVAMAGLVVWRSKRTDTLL

[2] = target: T1, Amylin receptor AMY3; CALCR/RAMP3; assay: Displacement of [125I]-labeled rat amylin from human amylin receptor expressed in BHK tkts13 whole cells co-expressing RAMP3 incubated for 60 mins by scintillation proximity assay; assay type: cell-based
[3] = Solubility in 100 mM glycylglycine buffer at pH 4.0 incubated for 18 hrs by UPLC analysis; assay type: physicochemical
[4] = Solubility in 100 mM glycylglycine buffer at pH 5.0 incubated for 18 hrs by UPLC analysis; assay type: physicochemical
[5] = Solubility in 100 mM glycylglycine buffer at pH 3.0 incubated for 18 hrs by UPLC analysis; assay type: physicochemical
[6] = Solubility in 100 mM bistrispropane buffer at pH 7.0 incubated for 18 hrs by UPLC analysis; assay type: physicochemical
Calcitonin receptor [7] = target: T2, Calcitonin receptor (Homo sapiens, UniProt P30988); assay: Agonist activity at human calcitonin receptor expressed in BHK570 cells assessed as increase in intracellular cAMP concentration incubated for 3 hrs in absence of albumin by CRE luciferase reporter gene assay; assay type: functional, cell-based
T2 sequence (P30988 whole entry): T1 sequence (P30988 whole entry)

[8] = target: T1, Amylin receptor AMY3; CALCR/RAMP3; assay: Agonist activity at human amylin receptor expressed in BHK570 cells co-expressing RAMP3 assessed as increase in intracellular cAMP concentration incubated for 3 hrs in presence of 10% FBS by CRE luciferase reporter gene assay; assay type: functional, cell-based
[9] = Solubility in 100 mM bistrispropane buffer at pH 7.5 incubated for 18 hrs by UPLC analysis; assay type: physicochemical
Calcitonin receptor [10] = target: T2, Calcitonin receptor; assay: Agonist activity at human calcitonin receptor expressed in BHK570 cells assessed as increase in intracellular cAMP concentration incubated for 3 hrs in presence of 10% FBS by CRE luciferase reporter gene assay; assay type: functional, cell-based
[11] = Solubility in 100 mM bistrispropane buffer at pH 6.0 incubated for 18 hrs by UPLC analysis; assay type: physicochemical
[12] = Solubility in 100 mM bistrispropane buffer at pH 8.0 incubated for 18 hrs by UPLC analysis; assay type: physicochemical
[13] = Solubility in 100 mM bistrispropane buffer at pH 6.5 incubated for 18 hrs by UPLC analysis; assay type: physicochemical

CC(C)C[C@H](NC(=O)[C@H](CCC(=O)O)NC(=O)[C@H](Cc1cnc[nH]1)NC(=O)[C@H](CC(C)C)NC(=O)[C@H](CCC(=O)O)NC(=O)[C@H](C)NC(=O)[C@H](CO)NC(=O)[C@H](CC(C)C)NC(=O)[C@H](CCCNC(=N)N)NC(=O)CNC(=O)[C@H](CC(C)C)NC(=O)[C@@H](NC(=O)[C@H](C)NC(=O)[C@@H](NC(=O)[C@@H](NC(=O)[C@H](CC(C)C)NC(=O)[C@H](CCC(=O)O)NC(=O)[C@H](CO)NC(=O)[C@H](C)NC(=O)CC[C@H](NC(=O)CCCCCCCCCCCCCCCCC(=O)O)C(=O)O)[C@@H](C)O)[C@@H](C)O)C(C)C)C(=O)N[C@@H](C)C(=O)N[C@H](C(=O)N[C@@H](CC(C)C)C(=O)N1CCC[C@H]1C(=O)N[C@@H](CCCNC(=N)N)C(=O)N[C@H](C(=O)N[C@@H](CCC(=O)O)C(=O)N[C@H](C(=O)NCC(=O)N[C@H](C(=O)NCC(=O)N[C@H](C(=O)N1CCC[C@H]1C(N)=O)[C@@H](C)O)[C@@H](C)O)[C@@H](C)O)[C@@H](C)O)[C@@H](C)O ({C18 diacid-γGlu}-ASELTTAVLGRLSAELHELATLPRTETGTGTP-NH2)
EC50 [1]: 0.065 nM | IC50 [2]: 2.15 nM | solubility at 18 h [3]: ≥ 200 µM | solubility at 18 h [4]: ≥ 200 µM | solubility at 18 h [5]: ≥ 200 µM | solubility at 18 h [6]: ≥ 200 µM | EC50 (Calcitonin receptor [7]): 0.032 nM | EC50 [8]: 0.052 nM | solubility at 18 h [9]: ≥ 200 µM | EC50 (Calcitonin receptor [10]): 0.013 nM | solubility at 18 h [11]: ≥ 200 µM | solubility at 18 h [12]: ≥ 200 µM | solubility at 18 h [13]: ≥ 200 µM

CC(C)C[C@H](NC(=O)CNC(=O)[C@H](CO)NC(=O)[C@H](C)NC(=O)CC[C@H](NC(=O)CCCCCCCCCCCCCCCCCCC(=O)O)C(=O)O)C(=O)N[C@@H](CO)C(=O)N[C@H](C(=O)N[C@@H](C)C(=O)N[C@@H](C)C(=O)N[C@@H](CC(C)C)C(=O)NCC(=O)N[C@@H](CCCNC(=N)N)C(=O)N[C@@H](CC(C)C)C(=O)N[C@@H](CO)C(=O)N[C@@H](C)C(=O)N[C@@H](CCC(=O)O)C(=O)N[C@@H](CC(C)C)C(=O)N[C@@H](Cc1cnc[nH]1)C(=O)N[C@@H](CCC(=O)O)C(=O)N[C@@H](CC(C)C)C(=O)N[C@@H](C)C(=O)N[C@H](C(=O)N[C@@H](Cc1ccc(O)cc1)C(=O)N1CCC[C@H]1C(=O)N[C@@H](CCCNC(=N)N)C(=O)N[C@H](C(=O)N[C@@H](CCC(=O)O)C(=O)N[C@H](C(=O)NCC(=O)N[C@@H](CO)C(=O)NCC(=O)N[C@@H](CO)C(=O)N1CCC[C@H]1C(N)=O)[C@@H](C)O)[C@@H](C)O)[C@@H](C)O)[C@@H](C)O ({C20 diacid-γGlu}-ASGLSTAALGRLSAELHELATYPRTETGSGSP-NH2)
EC50 [1]: 0.038 nM | IC50 [2]: 0.111 nM | solubility at 18 h [3]: ≥ 200 µM | solubility at 18 h [4]: ≥ 200 µM | solubility at 18 h [5]: ≥ 200 µM | solubility at 18 h [6]: ≥ 200 µM | EC50 (Calcitonin receptor [7]): 0.042 nM | EC50 [8]: 0.071 nM | solubility at 18 h [9]: ≥ 200 µM | EC50 (Calcitonin receptor [10]): 0.045 nM | solubility at 18 h [11]: ≥ 200 µM | solubility at 18 h [12]: ≥ 200 µM | solubility at 18 h [13]: ≥ 200 µM

CC(C)C[C@H](NC(=O)CC[C@H](NC(=O)CCCCCCCCCCCCCCCCCCC(=O)O)C(=O)O)C(=O)N[C@@H](CO)C(=O)NCC(=O)N[C@@H](CC(C)C)C(=O)N[C@@H](CO)C(=O)N[C@H](C(=O)N[C@@H](C)C(=O)N[C@H](C(=O)N[C@@H](CC(C)C)C(=O)NCC(=O)N[C@@H](CCCNC(=N)N)C(=O)N[C@@H](CC(C)C)C(=O)N[C@@H](CO)C(=O)N[C@@H](C)C(=O)N[C@@H](CCC(=O)O)C(=O)N[C@@H](CC(C)C)C(=O)N[C@@H](Cc1cnc[nH]1)C(=O)N[C@@H](CCC(=O)O)C(=O)N[C@@H](CC(C)C)C(=O)N[C@@H](CO)C(=O)N[C@H](C(=O)N[C@@H](Cc1ccc(O)cc1)C(=O)N1CCC[C@H]1C(=O)N[C@@H](CCCNC(=N)N)C(=O)N[C@H](C(=O)N[C@@H](CCC(=O)O)C(=O)N[C@H](C(=O)NCC(=O)N[C@@H](CO)C(=O)NCC(=O)N[C@H](C(=O)N[C@@H](Cc1ccc(O)cc1)C(N)=O)[C@@H](C)O)[C@@H](C)O)[C@@H](C)O)[C@@H](C)O)C(C)C)[C@@H](C)O ({C20 diacid-γGlu}-LSGLSTAVLGRLSAELHELSTYPRTETGSGTY-NH2)
EC50 [1]: 0.024 nM | IC50 [2]: 11.8 nM | solubility at 18 h [3]: ≥ 200 µM | solubility at 18 h [5]: ≥ 200 µM | solubility at 18 h [6]: ≥ 200 µM | EC50 (Calcitonin receptor [7]): 0.028 nM | EC50 [8]: 0.064 nM | solubility at 18 h [9]: ≥ 200 µM | EC50 (Calcitonin receptor [10]): 0.034 nM | solubility at 18 h [11]: ≥ 200 µM | solubility at 18 h [12]: ≥ 200 µM | solubility at 18 h [13]: ≥ 200 µM

CC(C)C[C@H](NC(=O)[C@H](C)NC(=O)[C@H](C)NC(=O)[C@@H](NC(=O)[C@H](CO)NC(=O)[C@H](CC(C)C)NC(=O)[C@H](CCC(=O)O)NC(=O)[C@H](CO)NC(=O)[C@H](C)NC(=O)[C@H](CCC(=O)O)NC(=O)CC[C@H](NC(=O)CCCCCCCCCCCCCCCCCCC(=O)O)C(=O)O)[C@@H](C)O)C(=O)NCC(=O)N[C@@H](CCCNC(=N)N)C(=O)N[C@@H](CC(C)C)C(=O)N[C@@H](CO)C(=O)N[C@@H](C)C(=O)N[C@@H](CCC(=O)O)C(=O)N[C@@H](CC(C)C)C(=O)N[C@@H](Cc1cnc[nH]1)C(=O)N[C@@H](CCC(=O)O)C(=O)N[C@@H](CC(C)C)C(=O)N[C@@H](C)C(=O)N[C@H](C(=O)N[C@@H](Cc1ccc(O)cc1)C(=O)N1CCC[C@H]1C(=O)N[C@@H](CCCNC(=N)N)C(=O)N[C@H](C(=O)N[C@@H](CCC(=O)O)C(=O)N[C@H](C(=O)NCC(=O)N[C@@H](CO)C(=O)NCC(=O)N[C@@H](CO)C(=O)N1CCC[C@H]1C(N)=O)[C@@H](C)O)[C@@H](C)O)[C@@H](C)O ({C20 diacid-γGlu}-EASELSTAALGRLSAELHELATYPRTETGSGSP-NH2)
EC50 [1]: 0.012 nM | IC50 [2]: 1.59 nM | solubility at 18 h [3]: ≥ 200 µM | solubility at 18 h [4]: ≥ 200 µM | solubility at 18 h [5]: ≥ 200 µM | solubility at 18 h [6]: ≥ 200 µM | EC50 (Calcitonin receptor [7]): 0.014 nM | EC50 [8]: 0.143 nM | solubility at 18 h [9]: ≥ 200 µM | EC50 (Calcitonin receptor [10]): 0.074 nM | solubility at 18 h [11]: ≥ 200 µM | solubility at 18 h [12]: ≥ 200 µM | solubility at 18 h [13]: ≥ 200 µM

CC(C)C[C@H](NC(=O)CNC(=O)[C@H](CO)NC(=O)[C@H](C)NC(=O)CC[C@H](NC(=O)CCCCCCCCCCCCCCCCCCC(=O)O)C(=O)O)C(=O)N[C@@H](CO)C(=O)N[C@H](C(=O)N[C@@H](C)C(=O)N[C@H](C(=O)N[C@@H](CC(C)C)C(=O)NCC(=O)N[C@@H](CCCNC(=N)N)C(=O)N[C@@H](CC(C)C)C(=O)N[C@@H](CO)C(=O)N[C@@H](CCC(N)=O)C(=O)N[C@@H](CCC(=O)O)C(=O)N[C@@H](CC(C)C)C(=O)N[C@@H](Cc1cnc[nH]1)C(=O)N[C@@H](CCC(=O)O)C(=O)N[C@@H](CC(C)C)C(=O)N[C@@H](CCC(N)=O)C(=O)N[C@H](C(=O)N[C@@H](Cc1ccc(O)cc1)C(=O)N1CCC[C@H]1C(=O)N[C@@H](CCCNC(=N)N)C(=O)N[C@H](C(=O)N[C@@H](CCC(=O)O)C(=O)N[C@H](C(=O)NCC(=O)N[C@@H](CO)C(=O)NCC(=O)N[C@H](C(=O)N[C@@H](Cc1ccc(O)cc1)C(N)=O)[C@@H](C)O)[C@@H](C)O)[C@@H](C)O)[C@@H](C)O)[C@@H](C)O)[C@@H](C)O ({C20 diacid-γGlu}-ASGLSTATLGRLSQELHELQTYPRTETGSGTY-NH2)
EC50 [1]: 0.04 nM | IC50 [2]: 0.079 nM | solubility at 18 h [3]: ≥ 200 µM | solubility at 18 h [5]: ≥ 200 µM | solubility at 18 h [6]: ≥ 200 µM | EC50 (Calcitonin receptor [7]): 0.034 nM | EC50 [8]: 0.122 nM | solubility at 18 h [9]: ≥ 200 µM | EC50 (Calcitonin receptor [10]): 0.092 nM | solubility at 18 h [11]: ≥ 200 µM | solubility at 18 h [12]: ≥ 200 µM | solubility at 18 h [13]: ≥ 200 µM
